Values quoted from earlier work in US20040216174A1, “Screening assays for targets and drugs useful in treatment and prevention of lipid metabolism disorders” (priority 2003, published 2004).

Test system: C. elegans
Settings: treatment with antioxidant

vitamin E
effect on germline development: slows down germline development
